This is an account of results in patent US8211633B2, “Viral variants with altered susceptibility to nucleoside analogs and uses thereof” (priority 2002, dated 2012).

Molecules are shown by their SMILES.

In assay [1] the test system is HBV encoding rtI169T+rtV173L+rtL180M+rtM204V. As to the kind of experiment: Antiviral testing with recombinant HBV/baculovirus in HepG2 cells, replicative intermediates by quantitative real-time PCR, quadruple mutant. Conditions: quadruple mutant rtI169T+rtV173L+rtL180M+rtM204V vs wild type; especially at concentrations up to 0.5 μM ETV; FIG. 11. The assay is classed as cell-based, hepatitis B virus. As to the method:
The sensitivity/resistance profile of HBV mutants to entecavir was examined in vitro using recombinant HBV/baculovirus. The procedure for analysing the resistance profile is outlined in the following Examples 7-14.
Sf21 insect cells were maintained in supplemented Grace's insect medium further supplemented with 10% v/v heat-inactivated fetal bovine serum (Gibco BRL, Gaithersburg, Md.) in humidified incubator at 28 C with CO2. HepG2 cells were maintained in minimal essential medium supplemented with 10% v/v heat-inactivated fetal bovine serum (MEM-FBS). HepG2 cells were grown in humidified 37° C. incubators at 5% v/v CO2.
The recombinant HBV/baculovirus system used for antiviral testing has been previously described (Delaney et al., Antimicrob Agents Chemother 45(6): 1705-[…], 2001). […] The nucleotide sequence of the plasmid and the point mutations generated by site directed mutagenesis were confirmed by sequencing using the ABI Prism Big Dye Terminator Cycle Sequencing Ready Reaction Kit according to the manufacturer's specifications (Perkin Elmer, Cetus Norwalk, Conn.). […]
HepG2 cells were seeded at approximately 20-40% confluency and then were grown for 16-24 hours before infection. On the day of infection, triplicate plates of cells were trypsinized, and viable cell number was determined with a hemocytometer using Trypan blue exclusion. […]

Assay [2] deals with WHV. The note with it: chronically-infected woodchucks; cited from earlier work.
Assay [3] relates to HBV. The note with it: four week dose-escalation trial; highest dose tested (1 mg/daily); cited from earlier work.
Assay [4] relates to HBV. As to the kind of experiment: Serum HBV DNA level in treated patients (Digene Hybrid Capture II capture hybridization assay). Type of assay: in vivo, human. The note with it: for HBV DNA: patient A, on LMV. An excerpt:
(§1) Patient A is a person with chronic hepatitis B presented on Day 0 (9 Jul. 1999) with raised serum HBV DNA levels (>2000 pg/ml) and was commenced on LMV treatment immediately (FIG. 2). The patient A was HBsAg positive and anti-HBe positive. Following the initiation of LMV treatment the HBV DNA levels fell to 8 pg/ml over 54 days of therapy. […] By Day 241 the serum ALT peaked at 741 IU/l. The HBV DNA was sequenced and LMV resistant virus was detected. […] The patient was started on open label ETV plus LMV.
Patient B is a liver transplant patient. […] The patient was treated with LMV prior to ETV. The patient is currently on ETV treatment. […] The HBV DNA from this sample was further characterized by sequencing.
Hepatitis B surface antigen (HBsAg), hepatitis B e antigen (HBeAg), anti-HBe and hepatitis B core antigen (HBcAg) specific IgG and IgM were measured using commercially available immunoassays (Abbott Laboratories, North Chicago, Ill., USA). Hepatitis B viral DNA levels were measured using a capture hybridization assay according to the manufacturer's directions (Digene Hybrid Capture II, Digene Diagnostics Inc., Beltsville, Md.). The manufacturers stated cut-off for detecting HBV viremia in clinical specimens was 0.7×10^6 copies/ml or 2.5 pg/ml, [Hendricks D A, et al., Am J Clin Pathol 104: 537-46, 1995].

The nature of assay [5]: Serum ALT level in treated patient A. The assay is classed as in vivo, human. Conditions: on LMV.
Source text: as §1

Setting [6] is: day 382 post LMV treatment, day blinded ETV vs LMV phase started.

For the molecule `C=C1[C@H](CO)[C@@H](O)C[C@@H]1n1cnc2c(=O)[nH]c(N)nc21` [ETV], in assay [1], the “sensitivity to ETV (HBV DNA replicative intermediates by quantitative PCR)” value is recorded as “reduced sensitivity to ETV”. Also, the “efficacy against WHV” value in assay [2] is on record as “demonstrated efficacy”. Also, in assay [3], the “mean reduction in viremia” value is on record as 2.5 log10. Besides, the “HBV DNA levels” value in assay [4] (patient B (liver transplant, LMV before ETV), during ETV treatment) is “less than 5 pg/ml”; in assay [4] (patient B, at 532 days ETV treatment (3857 days post transplant), rise) it was 993 pg/mL.
As to `Nc1ccn([C@@H]2CS[C@H](CO)O2)c(=O)n1` [LMV, (−)-β-2′-deoxy-3′-thiacytidine], the ALT in assay [5] (day 54 post LMV treatment) worked out at 510 IU/L; in assay [5] (day 87 post LMV treatment) it was 211 IU/L; in assay [5] (day 115 post LMV treatment), 106 IU/L; in assay [5] (day 173 post LMV treatment), 186 IU/L; in assay [5] (day 199 post LMV treatment) it was 233 IU/L; in assay [5] (day 241 post LMV treatment) it was 741 IU/L. In addition, the ALT in assay [5] (day 283 post LMV treatment) amounted to 334 IU/L; in assay [5] (day 312 post LMV treatment), 238 IU/L; in assay [5] (day 348 post LMV treatment), 349 IU/L; in assay [5] (setting [6]), 317 IU/L. In addition, the “HBV DNA” value in assay [4] (day 54 post LMV treatment) was found to be 8 pg/mL; in assay [4] (day 173 post LMV treatment) it was 837 pg/mL; in assay [4] (day 199 post LMV treatment), 1826 pg/mL; in assay [4] (day 241 post LMV treatment), 930 pg/mL; in assay [4] (day 283 post LMV treatment), 1631 pg/mL; in assay [4] (day 312 post LMV treatment) it was 1539 pg/mL. Besides, the “HBV DNA” value is 1605 pg/mL in assay [4] (day 348 post LMV treatment) and 1303 pg/mL in assay [4] (setting [6]).
